Measurements taken from patent US7247734B2 (Vernalis (Cambridge) Limited, priority 2001, dated 2007).
Where two headings read alike, the source gives them in different places.

How the values were obtained:
yeast HSP90 = biological target: T1, yeast HSP90 (Saccharomyces cerevisiae, UniProt P02829); test: Malachite green HSP90 ATPase assay; assay type: biochemical; conditions: 1 mM ATP, ±SD if n=3–5
T1 construct: made in house; host or cells: E. coli
Outline: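 E. coli-expressed yeast HSP90 ATPase activity measured as released inorganic phosphate by malachite green–molybdate colour (610 nm), with sodium citrate added to suppress non-enzymatic ATP hydrolysis. Assay buffer 100 mM Tris-HCl pH 7.4, 20 mM KCl, 6 mM MgCl2; compounds screened at 40 μM final.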

[1] = system: HCT116 human colon tumour cells; test: 96 h growth inhibition assay (SRB), HCT116; assay type: cell-based; conditions: Homo sapiens, HCT-116; HCT116, 96 h
Method: (§1) The growth inhibition assay employed was based on that described previously (Kelland et al., 1993). HCT116 and HT29 human colon tumour cells (American Tissue Culture Collection) were seeded into 96-well tissue culture plates (approximately 1600–2000 cells per well) and allowed to attach for 36 hours. Eight wells were treated with a single concentration from a range of compound concentrations and incubated for 96 hours. Cells were fixed using ice cold 10% trichloroacetic acid (TCA). Plates were then washed five times with water, air dried, and stained with 0.4% sulphorhodamine B (SRB) in 1% acetic acid for 10 minutes. The SRB stain was solubilised in 10 mM Tris-HCl and the absorbance measured at 540 nm using a Titertek Multiscan MCC/340 MKII plate reader (Flow Laboratories, IEC, Basingstoke, N.H.). The absorbance values correspond to total protein content and are used as a measure of cell growth.

[2] = system: HT29 human colon tumour cells; test: 96 h growth inhibition assay (SRB), HT29; assay type: cell-based; conditions: Homo sapiens, HT-29; HT29, 96 h
Method: as §1

T1 sequence (P02829 whole entry, looked up): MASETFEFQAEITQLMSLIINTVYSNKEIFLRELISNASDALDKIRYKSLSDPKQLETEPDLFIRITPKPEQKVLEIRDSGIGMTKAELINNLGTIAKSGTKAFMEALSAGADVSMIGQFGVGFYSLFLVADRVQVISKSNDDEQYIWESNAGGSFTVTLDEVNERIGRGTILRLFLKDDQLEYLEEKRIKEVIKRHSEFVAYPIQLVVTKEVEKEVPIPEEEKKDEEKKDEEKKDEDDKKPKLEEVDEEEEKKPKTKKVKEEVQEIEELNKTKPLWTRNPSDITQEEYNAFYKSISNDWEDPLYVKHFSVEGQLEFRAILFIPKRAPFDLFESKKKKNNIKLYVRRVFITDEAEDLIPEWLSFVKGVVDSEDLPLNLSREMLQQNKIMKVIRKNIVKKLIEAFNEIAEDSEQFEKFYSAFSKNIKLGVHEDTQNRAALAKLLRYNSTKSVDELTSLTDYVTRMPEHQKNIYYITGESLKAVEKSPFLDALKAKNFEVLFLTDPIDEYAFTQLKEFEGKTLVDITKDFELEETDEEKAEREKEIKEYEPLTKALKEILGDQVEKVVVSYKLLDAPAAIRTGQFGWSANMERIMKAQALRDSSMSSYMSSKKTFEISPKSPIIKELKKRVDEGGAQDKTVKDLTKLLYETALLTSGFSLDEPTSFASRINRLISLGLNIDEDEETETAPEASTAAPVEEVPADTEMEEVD

SMILES | IC50 (yeast HSP90; malachite green assay, read-out: HSP90 ATPase inhibition IC50) [µM] | IC50 [1] [µM] | IC50 [2] [µM] | IC50 (yeast HSP90; HSP90 ATPase inhibition IC50, malachite green assay) [µM]
Cc1[nH]nc(-c2ccc(O)cc2O)c1-c1ccc2c(c1)OCCO2 [CCT018157] | 60.5 ± 8 | 26 | 14 | 
CCc1cc(-c2n[nH]c(C)c2-c2ccc3c(c2)OCCO3)c(O)cc1O [CCT018159, 4-[4-(2,3-Dihydro-benzo[1,4]dioxin-6-yl)-5-methyl-1H-pyrazol-3-yl]-6-ethyl-benzene-1,3-diol] |  | 4.5 | 13.5 | 9.2 ± 0.65
